{
  "source": "patent US20160008277A1",
  "about": "“CO-PACKAGED DRUG PRODUCTS” (Lightlake Therapeutics Inc., priority 2014, published 2016)",
  "key": {"[1]": {"assay": "Safety of intranasal naloxone in humans (Study 2): nasal irritation, adverse events, vital signs, ECG", "assay_type": "in vivo, human", "details": "Study 2", "text": "Specifically, the study had several objectives.\nAEs were coded using the most recent version of the Medical Dictionary for Regulatory Activities (MedDRA) preferred terms and grouped by system, organ, class (SOC) designation. Separate summaries will be provided for the 5 study periods: after the administration of each dose of study drug up until the time of the next dose of study drug or clinic discharge. Listings of each individual AE including start date, stop date, severity, relationship, outcome, and duration were provided. Results are given below in Tables 12 and 13."}, "[2]": {"test_system": "suspected opiate overdose", "details": "cited from earlier work"}, "[3]": {"details": "2 mg nasal solution dose; cited from earlier work"}, "[4]": {"test_system": "patients with suspected narcotic overdose", "details": "cited from earlier work"}, "[5]": {"test_system": "suspected opiate overdose", "details": "cited from earlier work", "remark": "listed apart in the source"}, "[6]": {"details": "400 μL, cited from earlier work"}, "clinical": {"assay": "clinical", "details": "human, plasma; for AUC(0-t): AUC0-t; for AUC(0-inf): AUC0-∞"}, "overdose events": {"test_system": "overdose events", "details": "cited from earlier work"}, "[7]": {"details": "im, 0.4 mg, GLSM, 0.4 mg IM, no dose adjustment"}, "[8]": {"details": "other: intranasal, 2 mg, GLSM, 2 mg IN, no dose adjustment"}, "[9]": {"details": "other: intranasal, 2 mg, Mean, 2 mg IN"}, "[10]": {"details": "other: intranasal, 4 mg, GLSM, 4 mg IN, no dose adjustment"}, "[11]": {"details": "other: intranasal, 4 mg, Mean, 4 mg IN"}},
  "note": "Like-named read-outs stand apart in the source and are kept apart here.",
  "data": [
    {"smiles": "C=CCN1CC[C@]23c4c5ccc(O)c4O[C@H]2C(=O)CC[C@@]3(O)[C@H]1C5", "note": "[naloxone, 17-allyl-4,5a-epoxy-3,14-dihydroxymorphinan-6-one]", "values": [
      {"measurement": "QTcF prolongation", "setting": "[1]", "value": "no evidence of QTcF prolongation"},
      {"measurement": "Vital signs, ECG, and clinical laboratory parameters", "setting": "[1]; after naloxone administration", "value": "did not reveal any clinically noteworthy changes"},
      {"measurement": "Adverse events overall", "setting": "[1]; nasal or intramuscular administration", "value": "few adverse events were reported"},
      {"measurement": "patients with more than 10 spontaneous respirations per minute within 8 minutes", "setting": "[2]; 2 mg IM group", "value": 82, "unit": "%"},
      {"measurement": "patients with more than 10 spontaneous respirations per minute within 8 minutes", "setting": "[2]; 2 mg IN group", "value": 63, "unit": "%"},
      {"measurement": "patients needing rescue naloxone", "setting": "[2]; IM group", "value": 13, "unit": "%"},
      {"measurement": "patients needing rescue naloxone", "setting": "[2]; IN group", "value": 26, "unit": "%"},
      {"measurement": "Cmax (predicted by Wermeling)", "setting": "[3]", "value": "3 to 5", "unit": "ng/mL"},
      {"measurement": "tmax (predicted by Wermeling)", "setting": "[3]", "value": "approximately 20 minutes"},
      {"measurement": "Clinical response noted", "setting": "[4]; IN group (2 mg), 33 of 50", "value": 66, "unit": "%"},
      {"measurement": "mean time between naloxone administration and clinical response", "setting": "[4]; IN group", "value": 12.9, "unit": "min"},
      {"measurement": "patients who received two doses of naloxone", "setting": "[4]; IN group", "value": 34, "unit": "%"},
      {"measurement": "Clinical response noted", "setting": "[4]; IV group, 58 of 104", "value": 56, "unit": "%"},
      {"measurement": "mean time between naloxone administration and clinical response", "setting": "[4]; IV group", "value": 8.1, "unit": "min"},
      {"measurement": "patients who received two doses of naloxone", "setting": "[4]; IV group", "value": 18, "unit": "%"},
      {"measurement": "patients responding to IN naloxone alone", "setting": "[5]; 2 mg IN, 43 of 52 patients who responded to naloxone by IN or IV", "value": 83, "unit": "%"},
      {"measurement": "median time from administration of the IN naloxone to patient awakening", "setting": "[5]; 2 mg IN", "value": 3.0, "unit": "min"},
      {"measurement": "median time from arrival at patient side to awakening", "setting": "[5]; 2 mg IN", "value": 8.0, "unit": "min"},
      {"measurement": "patients requiring further doses of IV naloxone", "setting": "[5]; among responders to 2 mg IN alone", "value": 16, "unit": "%"},
      {"measurement": "mean Tmax", "setting": "[6]; 8 mg IN", "value": 20.4, "unit": "min"},
      {"measurement": "mean Tmax", "setting": "[6]; 16 mg IN", "value": 23.4, "unit": "min"},
      {"measurement": "AUC % Extrapolate, mean (% CV)", "setting": "0.4 mg IM", "value": "2.32 (54.1) %"},
      {"measurement": "Lambda z (harmonic mean)", "setting": "0.4 mg IM", "value": 0.5534, "unit": "h⁻¹"},
      {"measurement": "Lambda z (harmonic mean)", "setting": "0.4 mg IM, Female", "value": 0.6140, "unit": "h⁻¹"},
      {"measurement": "Lambda z (harmonic mean)", "setting": "0.4 mg IM, Male", "value": 0.5152, "unit": "h⁻¹"},
      {"measurement": "Lambda z (harmonic mean)", "setting": "One 20 mg/mL IN, Female", "value": 0.3978, "unit": "h⁻¹"},
      {"measurement": "Lambda z (harmonic mean)", "setting": "One 20 mg/mL IN, Male", "value": 0.3492, "unit": "h⁻¹"},
      {"measurement": "Lambda z (harmonic mean)", "setting": "One 40 mg/mL IN, Female", "value": 0.2946, "unit": "h⁻¹"},
      {"measurement": "Lambda z (harmonic mean)", "setting": "One 40 mg/mL IN, Male", "value": 0.3386, "unit": "h⁻¹"},
      {"measurement": "AUC % Extrapolate, mean (% CV)", "setting": "One Spray - 2 mg 20 mg/mL IN", "value": "1.09 (41.9) %"},
      {"measurement": "Lambda z (harmonic mean)", "setting": "One Spray - 2 mg 20 mg/mL IN", "value": 0.3685, "unit": "h⁻¹"},
      {"measurement": "AUC % Extrapolate, mean (% CV)", "setting": "One Spray - 4 mg 40 mg/mL IN", "value": "1.06 (52.5) %"},
      {"measurement": "Lambda z (harmonic mean)", "setting": "One Spray - 4 mg 40 mg/mL IN", "value": 0.3182, "unit": "h⁻¹"},
      {"measurement": "Lambda z (harmonic mean)", "setting": "Two 20 mg/mL IN, Female", "value": 0.2796, "unit": "h⁻¹"},
      {"measurement": "Lambda z (harmonic mean)", "setting": "Two 20 mg/mL IN, Male", "value": 0.3122, "unit": "h⁻¹"},
      {"measurement": "Lambda z (harmonic mean)", "setting": "Two 40 mg/mL IN, Female", "value": 0.2994, "unit": "h⁻¹"},
      {"measurement": "Lambda z (harmonic mean)", "setting": "Two 40 mg/mL IN, Male", "value": 0.3407, "unit": "h⁻¹"},
      {"measurement": "AUC % Extrapolate, mean (% CV)", "setting": "Two Sprays - 4 mg 20 mg/mL IN", "value": "1.01 (53.9) %"},
      {"measurement": "Lambda z (harmonic mean)", "setting": "Two Sprays - 4 mg 20 mg/mL IN", "value": 0.2973, "unit": "h⁻¹"},
      {"measurement": "AUC % Extrapolate, mean (% CV)", "setting": "Two Sprays - 8 mg 40 mg/mL IN", "value": "1.04 (78.1) %"},
      {"measurement": "Lambda z (harmonic mean)", "setting": "Two Sprays - 8 mg 40 mg/mL IN", "value": 0.3217, "unit": "h⁻¹"},
      {"measurement": "AUC(0-t)", "setting": "clinical; [7]", "value": 1.35, "unit": "ng·h/mL"},
      {"measurement": "AUC(0-t)", "setting": "clinical; im, 0.4 mg, Mean, 0.4 mg IM", "value": 1.38, "unit": "ng·h/mL"},
      {"measurement": "AUC(0-inf)", "setting": "clinical; [7]", "value": 1.39, "unit": "ng·h/mL"},
      {"measurement": "AUC(0-inf)", "setting": "clinical; im, 0.4 mg, Mean, 0.4 mg IM", "value": 1.42, "unit": "ng·h/mL"},
      {"measurement": "Tmax", "setting": "clinical; im, 0.4 mg, GLSM, 0.4 mg IM", "value": 18.5, "unit": "min"},
      {"measurement": "Tmax", "setting": "clinical; im, 0.4 mg, Mean, 0.4 mg IM", "value": 20.3, "unit": "min"},
      {"measurement": "AUC(0-t)", "setting": "clinical; [8]", "value": 3.28, "unit": "ng·h/mL"},
      {"measurement": "AUC(0-t)", "setting": "clinical; [9]", "value": 3.41, "unit": "ng·h/mL"},
      {"measurement": "AUC(0-inf)", "setting": "clinical; [8]", "value": 3.32, "unit": "ng·h/mL"},
      {"measurement": "AUC(0-inf)", "setting": "clinical; [9]", "value": 3.44, "unit": "ng·h/mL"},
      {"measurement": "Tmax", "setting": "clinical; other: intranasal, 2 mg, GLSM, 2 mg IN", "value": 20, "unit": "min"},
      {"measurement": "Tmax", "setting": "clinical; [9]", "value": 20, "unit": "min"},
      {"measurement": "AUC(0-t)", "setting": "clinical; [10]", "value": 5.41, "unit": "ng·h/mL"},
      {"measurement": "AUC(0-t)", "setting": "clinical; [11]", "value": 5.63, "unit": "ng·h/mL"},
      {"measurement": "AUC(0-inf)", "setting": "clinical; [10]", "value": 5.47, "unit": "ng·h/mL"},
      {"measurement": "AUC(0-inf)", "setting": "clinical; [11]", "value": 5.68, "unit": "ng·h/mL"},
      {"measurement": "Tmax", "setting": "clinical; other: intranasal, 4 mg, GLSM, 4 mg IN", "value": 17.5, "unit": "min"},
      {"measurement": "Tmax", "setting": "clinical; [11]", "value": 18.4, "unit": "min"},
      {"measurement": "overdose events reversed", "setting": "overdose events; 399 overdose events where naloxone was used, participant-reported", "value": 89, "unit": "%"},
      {"measurement": "participants reporting serious adverse effects", "setting": "overdose events; take-home naloxone", "value": "< 1", "unit": "%"}
    ]}
  ]
}
